Data published in patent US4698327A, “Novel glycopeptide derivatives” (priority 1986, dated 1987).
Converted amounts (≈) assume the structure as drawn.

How the values were obtained:
[1] = tested on: Staphylococcus aureus X400; experiment: MIC, standard agar-dilution assay; assay type: cell-based
Escherichia coli EC14 = experiment: MIC, standard agar-dilution assay; assay type: cell-based
[2] = tested on: Streptococcus sp. group D 2041; experiment: MIC, standard agar-dilution assay; assay type: cell-based
Staphylococcus aureus = Staphylococcus aureus infection in mice; two doses, administered subcutaneously
[3] = tested on: Staphylococcus aureus S13E; assay type: cell-based; conditions: agar dilution
[4] = tested on: Haemophilus influenzae 76; experiment: MIC, standard agar-dilution assay; assay type: cell-based
[5] = tested on: Staphylococcus aureus V41; experiment: MIC, standard agar-dilution assay; assay type: cell-based
[6] = tested on: Haemophilus influenzae C.L.; experiment: MIC, standard agar-dilution assay; assay type: cell-based
[7] = tested on: Staphylococcus epidermidis EPI1; assay type: cell-based; conditions: agar dilution
[8] = tested on: Klebsiella pneumoniae X68; experiment: MIC, standard agar-dilution assay; assay type: cell-based
[9] = tested on: Klebsiella pneumoniae KAE; experiment: MIC, standard agar-dilution assay; assay type: cell-based
[10] = tested on: Staphylococcus aureus NRRL B313; conditions: agar dilution
Streptococcus pneumoniae = Streptococcus pneumoniae infection in mice; two doses, administered subcutaneously
[11] = tested on: Klebsiella pneumoniae X26; experiment: MIC, standard agar-dilution assay; assay type: cell-based
[12] = tested on: Streptococcus pyogenes C203; experiment: MIC, standard agar-dilution assay; assay type: cell-based
[13] = tested on: Streptococcus pneumoniae Park 1; assay type: cell-based; conditions: agar dilution
Streptococcus pyogenes = Streptococcus pyogenes infection in mice; two doses, administered subcutaneously
Escherichia coli N10 = experiment: MIC, standard agar-dilution assay; assay type: cell-based
[14] = tested on: Staphylococcus epidermidis 222; experiment: MIC, standard agar-dilution assay; assay type: cell-based
[15] = tested on: Streptococcus faecium ATCC 9790; experiment: MIC, standard agar-dilution assay; assay type: cell-based
Escherichia coli TEM = experiment: MIC, standard agar-dilution assay; assay type: cell-based

## CNC(CC(C)C)C(=O)NC1C(=O)NC(CC(N)=O)C(=O)NC2C(=O)NC3C(=O)NC(C(=O)NC(C(=O)O)c4cc(O)cc(O)c4-c4cc3ccc4O)C(O)c3ccc(c(Cl)c3)Oc3cc2cc(c3OC2OC(CO)C(O)C(O)C2OC2CC(C)(NCc3ccc(O)cc3)C(O)C(C)O2)Oc2ccc(cc2Cl)C1O (stereo not drawn) [Example 105, N^van --( -p-hydroxybenzyl)vancomycin]
[1]
  MIC: 0.5 µg/mL (≈ 0.321 µM)
Escherichia coli EC14
  MIC: > 128 µg/mL
[2]
  MIC: 2 µg/mL (≈ 1.29 µM)
Staphylococcus aureus
  ED50: 0.98 mg/kg/2
[3]
  MIC: 0.5 µg/mL (≈ 0.321 µM)
[4]
  MIC: 64 µg/mL (≈ 41.1 µM)
[5]
  MIC: 0.5 µg/mL (≈ 0.321 µM)
[6]
  MIC: 64 µg/mL (≈ 41.1 µM)
[7]
  MIC: 1 µg/mL (≈ 0.643 µM)
[8]
  MIC: > 128 µg/mL
[9]
  MIC: > 128 µg/mL
[10]
  MIC: 0.5 µg/mL (≈ 0.321 µM)
Streptococcus pneumoniae
  ED50: 1.25 mg/kg/2
[11]
  MIC: > 128 µg/mL
[12]
  MIC: 0.5 µg/mL (≈ 0.321 µM)
[13]
  MIC: 0.06 µg/mL (≈ 0.0386 µM)
Streptococcus pyogenes
  ED50: 1.18 mg/kg/2
Escherichia coli N10
  MIC: > 128 µg/mL
[14]
  MIC: 0.5 µg/mL (≈ 0.321 µM)
[15]
  MIC: 0.5 µg/mL (≈ 0.321 µM)
Escherichia coli TEM
  MIC: > 128 µg/mL
